Measurements taken from US9770397B2, “Oxidative dyeing composition” (KAO GERMANY GMBH, priority 2012, dated 2017).

Tested on: scalp
Assay: monadic use test for scalp compatibility and mildness
Design: species or system consumers
Conditions: in vivo
Description: The above compositions were tested in a monadic use test for scalp compatibility and mildness. Both compositions were used to dye hair of 30 consumers each having shoulder length hair. The composition was mixed with a composition comprising 6% hydrogen peroxide at a weight ratio of 1 to 1 and applied onto hair and processed for 30 min at a temperature of 40° C. and rinsed off. It was observed that both composition colour hair in the same way to the same colour direction. The following observations were made on scalp irritation.

O=C(CCc1ccc(O)cc1)Nc1ccccc1C(=O)O [hydroxyphenyl propamidobenzoic acid, Hydroxyphenyl propamidobenzoic acid]
mildness and scalp compatibility of hair dyeing composition (conclusion in words): improved mildness of hair dyeing composition and improved scalp compatibility
